Assay results reported in patent US20260209269A1, “MANDELIC ACID SALT OF PALMITOYL LYSYLVALYL-LYSINE” (DSM IP Assets B.V., priority 2022, published 2026).

Assay: Stability in a cosmetic preparation (clear gel), peptide content after storage
Assay type: physicochemical

Row | loss of active (after 3 months storage at 40° C.) | loss of active (after 1 months at 40° C.) | Substance
1 | −19% |  | Palm-Lys-Val-Lys-OH*2MA [MA salt]
2 |  | 52% | Palm-Lys-Val-Lys-OH*2MPAA [MPAA salt]
